From patent US20230416830A1, “METHODS AND COMPOSITIONS FOR PREDICTING AND TREATING UVEAL MELANOMA” (INSERM (INSTITUT NATIONAL DE LA SANTÉ ET DE LA RECHERCHE …, priority 2020, published 2023)

Assays:
Type in all cases: cell-based, human
NOTCH reporter activity = assay: NOTCH reporter vector assay in OMM1 uveal melanoma cells
Protocol: (§1) FIG. 9: NOTCH signaling controls uveal melanoma cell growth and migration. (A) OMIVI1 uveal melanoma cells were transfected with the NOTCH reporter vector before being treated or not with DLL4 1μg/ml in absence or presence of BMS-906024 10 μM. Data shown are mean +SD of three experiments. ***p<0.001 and *p<0.05. (B) 3D spheroid assays of 92.1 cells exposed to DAPT 10μg/ml or BMS-906024 lOpM for 96 h. Surface of the imaged spheroid area was determined. ***p<0.001. Representative images are shown. (C) Boyden chambers experiments with 92.1 cells treated or not with DLL4 1 μg/ml. Data shown are mean+SD of three experiments. **p<0.01. Representative images are shown.
Human uveal melanoma cell lines Me127051, 92.152, OMM2.551 were grown in RPMI glutamax supplemented with 10% FBS, OMM153 were grown in DMEM glutamax supplemented with Sodium Pyruvate 1%, MEM Essential Vitamin Mixture 1%, NEAA 1%, Hepes 1%, 10% FBS, MP46, MP65 (from ATCC) were grown in DMEM/F12 w/Glutamine 10% FBS, Glutamax 2mM, Insulin-Transferin-Selenium 0.5x at 37° C. in a humidified atmosphere containing 5% CO2. LipofectamineTM RNAiMAX and opti-MEM medium were purchased from Invitrogen (San Diego, CA, USA). BMS-906024 (#BM0018) and DAPT (#5942) were obtained from Sigma, DLL4 from R&D systems (#1506-D4-050).

[1] = tested on: 92.1 primary uveal melanoma cells; assay: 3D spheroid (melanosphere) assay of 92.1 cells; conditions: 96 h
Description: FIG. 8: HES6 knockdown inhibits uveal melanoma anchorage-dependent and—independent cell growth. (A) Q-RT-PCR showing HES6 level in OMM2.5 metastatic melanoma cells transfected with a control siRNA (siCtl) or two different pools of multiple siRNA targeting HES6 (siHES6#1 and siHES6#2). (B-C) Colony formation assay of OMM2.5 and OMM1 metastatic uveal melanoma cells treated with control siRNA or with two different pools of multiple siRNA targeting HES6 (siHES6#1 and siHES6#2). Representative images are shown. (D) 92.1 primary uveal melanoma cells expressing doxycycline-inducible control or two different HES6 shRNA in presence of 1 μg/ml doxycycline for 72 hrs. Efficiency is shown by RT-QPCR. ***p<0.001 (E) Colony formation assay of 92.1 primary uveal melanoma cells expressing doxycycline-inducible control or two different HES6 shRNA. Representative images are shown. Crystal violet was next dissolved and measured at 490 nm. ***p<0.001. (F) 3D spheroid assays of 92.1 cells expressing doxycycline-inducible control or HES6 shRNA in presence of 1 μg/ml doxycycline for 96 hrs. Surface of the imaged spheroid area was determined. ***p<0.001. Representative images are shown.
FIG. 9: NOTCH signaling controls uveal melanoma cell growth and migration. […] Surface of the imaged spheroid area was determined. ***p<0.001. […]

92.1 cells = assay: Boyden chamber migration of 92.1 cells; conditions: DLL4 1 μg/ml
Protocol: as §1
FIG. 11: HES6 inhibition impairs metastatic uveal melanoma cells motile ability. Migration of 92.1 cells expressing doxycycline-inducible control or HES6 shRNA in presence of 1 μg/ml doxycycline for 48 hrs in presence or absence of DLL4 1 μg/ml. ***p<0.001. Representative images are shown.
Cell migration was assessed using a modified Boyden chamber assay with 8-μm pore filter inserts for 24-well plates (BD Bioscience). Cells were seeded on the upper chamber of a trans-well and DMEM 7% FBS placed into the lower chamber. Cells adherent to the underside of the filters were fixed with 4% PFA, stained with 0.4% crystal violet and five random fields at x20 magnification were counted. […]

[2] = tested on: Me1270 primary uveal melanoma cells; assay: Migration of Me1270 cells; conditions: Me1270 cells expressing doxycycline-inducible HES6 shRNA, doxycycline 1 μg/ml 48 hrs, DLL4 1 μg/ml
Description: FIG. 6: HES6 expression in primary uveal melanomas controls the motile ability. (A) Relative expression of HES/HEY gene family (TCGA dataset). (B) Human primary uveal Me1270 melanoma cells were transfected with a control siRNA (siCtl) or two different pools of multiple siRNA targeting HES6 (siHES6#1 and siHES6#2). siRNA efficacy is shown by RT-QPCR. (C) Migration Me1270 cells transfected with the indicated siRNA. ***p<0.001. Representative images are shown. (D) Colony formation assay of Me1270 cells transfected with the indicated siRNA. ***p<0.001. Representative images are shown.
FIG. 10: HES6 signaling is a key driver of aggressive and motile phenotypes. Migration of Me1270 cells expressing doxycycline-inducible control or HES6 shRNA in presence of 1 μg/ml doxycycline for 48 hrs in presence or absence of DLL4 1 *g/ml. ***p<0.001. Representative images are shown.
Briefly, a single pulse of 50 nM of HES6 siRNA (Dharmacon L-008408-00-0005 and […]
Cell migration was assessed using a modified Boyden chamber assay with 8-μm pore filter inserts for 24-well plates (BD Bioscience). […] Cells adherent to the underside of the filters were fixed with 4% PFA, stained with 0.4% crystal violet and five random fields at x20 magnification were counted. […]

CN1C(=O)[C@@H](NC(=O)[C@H](CCC(F)(F)F)[C@H](CCC(F)(F)F)C(N)=O)N=C(c2ccccc2)c2ccccc21 [BMS-906024, reference compound]
effect on DLL4-increased NOTCH reporter activity (NOTCH reporter activity; DLL4 1μg/ml in presence of BMS-906024 10 μM): inhibited | melanosphere formation (surface of spheroid area) ([1]; BMS-906024 lOpM): reduced

DLL4: Delta-like ligand 4, NOTCH natural ligand, from R&D systems (#1506-D4-050)
migration in HES6 knockdown cells (92.1 cells; 92.1 cells expressing doxycycline-inducible HES6 shRNA, doxycycline 1 μg/ml 48 hrs): could no longer increased migration | uveal melanoma cell migration (92.1 cells; 92.1 cells): enhanced | NOTCH reporter activity (NOTCH reporter activity; DLL4 1μg/ml): increased | migration in HES6 knockdown cells [2]: could no longer increased migration

O=C(O)CN(CC(=O)O)CC(O)CN(CC(=O)O)CC(=O)O [DAPT, diaminopropanol tetraacetic acid]
melanosphere formation (surface of spheroid area) ([1]; DAPT 10μg/ml): reduced
